Experimental data from patent US20160067272A1, “METHODS FOR TREATING IMMUNE DISEASES” (priority 2013, published 2016).

Key:
[1] = tested on: naïve CD4+ T cells; test: Naïve CD4+ T cell differentiation under Th17 polarizing conditions; type: cell-based, mouse
From the text: To elucidate the role of NAD^+ on CD4^− T cell differentiations in Th17 polarizing conditions, isolated naïve CD4^+ T cells were activated with anti-CD3/CD28 antibodies in the presence of recombinant TGFβ, IL-6 and anti-IL-4, anti-IL-12, and anti-IFNγ antibodies. […] Of note, expression of the pro-inflammatory cytokine TNF-α was inhibited in presence of NAD^+ (FIG. 1E).
Single-cell leukocyte suspensions were obtained from spleens from 8-10 week old DBA mice and CD4^− T cells were isolated by negative selection using a CD4^+ T cell isolation kit (MILTENYI BIOTEC, Bergisch Gladbach, Germany). Cells were further sorted using α-CD4-PE (EBIOSCIENCE, San Diego, Calif.) and purities of CD4^+ T cells after isolation were >98%.
All recombinant cytokines and antibodies were purchased from EBIOSCIENCE except recombinant TGF-β cytokine (R&D SYSTEMS, Minneapolis, Minn.). After 96 hrs of culture supernatants and cells were collected and analyzed by ELISA and flow cytometry, respectively.
Fluorescently labeled anti-mouse α-CD4 (GK1.5), α-CD25 (PC61), α-IFN-γ (XMG1.2) and unlabeled α-CD16/CD32 (2.4G2) antibodies were obtained from BD BIOSCIENCES (San Jose, Calif.). Fluorescently labeled anti-mouse α-IL-4 (FJK-16s), α-IL-10 (JES5-16E3), α-IL-17A (eBio17B7), and anti-TGFβ (TW7-16B4) were obtained from eBIOSCIENCE (San Diego, Calif.). Intracellular staining for IL-4, IL-10, IL-17A, IFNγ and TGFβ was performed according to manufacturers' protocols. Splenocytes were re-stimulated in complete media (RPMI media containing 10% FCS, 1% L-Glutamine, 1% Penicillin/Streptomycin; all Bio Whittaker, Walkersville, Md.) for 4 hours at 37° C. with ionomycin, phorbol 12-myristate 13-acetate and Brefelding A (EBIOSCIENCE). Cells were fixed and permeabilized using CYTOFIX/CYTOPERM solution (BD BIOSCIENCES). Flow cytometry measurements of single-cell suspensions were performed on a FACSCalibur using standard procedures and data were analyzed using FLOWJO software (TREE STAR, Ashland, Oreg.).

[2] = tested on: CD4+CD25+ nTregs; test: Functional in-vitro Treg cell assay (flow cytometry, ELISA, real-time PCR); type: cell-based, mouse
[3] = nTregs with NAD+, 24 hrs of culture
[4] = nTregs with NAD+, after 4 days of culture
[5] = nTregs, increasing NAD+, 96 hrs, real-time PCR and ELISA

SMILES: NC(=O)c1ccc[n+]([C@@H]2O[C@H](COP(=O)([O-])OP(=O)(O)OC[C@H]3O[C@@H](n4cnc5c(N)ncnc54)[C@H](O)[C@@H]3O)[C@@H](O)[C@H]2O)c1 [NAD+, nicotinamide adenine dinucleotide]
- IL-10 cytokine production ([1]; ELISA): reduced
- IL-17 cytokine production ([1]; ELISA): did not affect
- TNF-α expression ([1]; ELISA): inhibited
- CD4+IL-17A+ cells ([1]; flow cytometry): no changes
- cells able to produce IL-17A ([2]; 250 μM NAD+, 96 hrs of culture): more than 16%
- nTregs apoptosis ([2]; Annexin V, increasing NAD+): induced
- proliferation of CD4+CD25−IL-17A+Foxp3+ cells (CFSE) ([2]; NAD+, dose dependent manner, no exogenous IL-23): able to proliferate
- frequencies of CD4+CD25+FoxP3+ cells ([2]; increased NAD+ concentrations, IL-2, no TGFβ/IL-6): reduced
- apoptosis of CD4+CD25−IL-17A+Foxp3+ cells (annexin V) ([2]; increasing NAD+, 48 and 96 hrs): did not become apoptotic
- IL-17A cytokine production ([2]; nTregs from STAT3−/− mice vs wild type, with NAD+, 96 hrs, ELISA): reduced
- frequency of IL-17A+ cells ([2]; nTregs from STAT3−/− mice vs wild type, with NAD+, 96 hrs, flow cytometry): significant decreased, but not complete
- Foxp3 mRNA level [2, 3]: significantly increased
- GATA3 expression level [2, 3]: remained unchanged
- RORγt mRNA level [2, 3]: > 10 fold
- STAT3 mRNA level [2, 3]: > 10 fold
- STAT5 expression level [2, 3]: remained unchanged
- Tbx21 expression level [2, 3]: remained unchanged
- Foxp3 mRNA level [2, 4]: remained significantly increased
- GATA-3 mRNA level [2, 4]: decreased significantly
- RORγt mRNA level [2, 4]: remained significantly increased
- STAT3 mRNA level [2, 4]: remained significantly increased
- STAT5 mRNA level [2, 4]: decreased significantly
- Tbx21 mRNA level [2, 4]: decreased significantly
- IFNγ mRNA and cytokine levels [2, 5]: decreased in a dose dependent manner
- IL-4 mRNA and cytokine levels [2, 5]: decreased in a dose dependent manner
- IL-10 mRNA and cytokine levels [2, 5]: decreased dramatically
- IL-17A mRNA and protein levels [2, 5]: increased in a dose dependent manner
- TGFβ mRNA and cytokine levels [2, 5]: decreased dramatically
